Measurements from patent US20090023683A1, “COMPLEXES COMPRISING ZOLEDRONIC ACID AND CYCLODEXTRINS” (priority 2007, published 2009).

Assays:
[1] = Water solubility at 25° C. of zoledronic acid-HPβCD complexes and zoledronic acid monohydrate; assay type: physicochemical
Description: Solubility data of Examples 1-5 and Zoledronic Acid Monohydrate

[2] = cited from earlier work
[3] = cited from earlier work; remark: listed apart in the source

Molecule: O=P(O)(O)C(O)(Cn1ccnc1)P(=O)(O)O [Zoledronic acid monohydrate, zoledronic acid monohydrate]
- solubility [1]: < 7000 µg/mL

Molecule: hydroxypropyl-β-cyclodextrin [HPβCD]
- adverse effects in human studies [2]: no adverse effects are observed
- solubility in water ([3]; room temperature): greater than 500 mg/ml

Molecule: O=P(O)(O)C(O)(Cn1ccnc1)P(=O)(O)O [zoledronic acid]
- water solubility (in words) [3]: sparingly water-soluble
